Experimental findings from ChEMBL document CHEMBL5344418, “Recent developments in antimalarial activities of 4-aminoquinoline derivatives” (Eur J Med Chem, 2023) are described below.

Data set [1] in a line: Cytotoxicity against African green monkey Vero cells assessed as reduction in cell viability measured after 24 hrs. The data set is classed as toxicity, cell-based. The note with it: African green monkey (Chlorocebus sabaeus).
Data set [2] relates to Plasmodium falciparum. The data set is described as follows: Antiplasmodial activity against chloroquine-resistant Plasmodium falciparum W2 assessed as parasitic growth inhibition incubated for 72 hrs by SYBR Green staining based fluorescence analysis. The data set is classed as functional, organism-based. As to conditions: W2, 72 h.
Data set [3] relates to Plasmodium falciparum. The data set is described as follows: Antiplasmodial activity against chloroquine-sensitive Plasmodium falciparum 3D7 assessed as parasitic growth inhibition incubated for 72 hrs by SYBR Green staining based fluorescence analysis. The data set is classed as functional, organism-based. The note with it: 3D7, 72 h.
Data set [4] relates to Plasmodium falciparum. As to the kind of experiment: Antimalarial activity against Plasmodium falciparum assessed as reduction in parasite growth incubated for 48 hrs by Giemsa staining based analysis. The data set is classed as functional, organism-based.
Data set [5] deals with Plasmodium falciparum. The data set is described as follows: Antiplasmodial activity against Plasmodium falciparum NF54. The data set is classed as functional, organism-based.
The nature of data set [6]: Cytotoxicity against African green monkey Vero cells by MTT assay. The note with it: African green monkey (Chlorocebus sabaeus). The data set is classed as toxicity, cell-based.
The test system of data set [7] is Plasmodium falciparum. The data set is described as follows: Antimalarial activity against Plasmodium falciparum K1 assessed as reduction in parasitic growth incubated for 48 hrs by Giemsa-staining counting based microscopic analysis. The note with it: K1, 48 h. It counts as functional, organism-based.
Data set [8] has as its system Plasmodium falciparum. As to the kind of experiment: Antimalarial activity against Plasmodium falciparum 3D7 assessed as reduction in parasite growth incubated for 48 hrs by Giemsa-staining counting based microscopic analysis. The data set is classed as functional, organism-based. The note with it: 3D7, 48 h.
The nature of data set [9]: Cytotoxicity against African green monkey Vero cells assessed as reduction in cell viability incubated for 48 hrs by MTT assay. The data set is classed as toxicity, cell-based. The note with it: chlorocebus sabaeus. For orientation: Formazan colour is commonly taken as a measure of viable cells.
Data set [10] concerns Plasmodium falciparum. The data set is described as follows: Antimalarial activity against chloroquine-sensitive Plasmodium falciparum NF54 assessed as reduction in cell growth. The data set is classed as functional, organism-based.
Data set [11] relates to Plasmodium falciparum. The data set is described as follows: Antimalarial activity against Plasmodium falciparum Dd2 assessed as reduction in parasitic growth. The data set is classed as functional, organism-based.
In data set [12] the test system is Plasmodium falciparum. The data set is described as follows: Antiplasmodial activity against Plasmodium falciparum 3D7 assessed as inhibition of parasitic growth. It counts as functional, organism-based.
Data set [13] concerns Plasmodium falciparum. The data set is described as follows: Antimalarial activity against chloroquine-sensitive Plasmodium falciparum 3D7 assessed as reduction in parasite growth incubated for 48 hrs by SYBR green assay. The data set is classed as functional, organism-based. As to conditions: 3D7, 48 h.
Data set [14] relates to Plasmodium falciparum. The data set is described as follows: Antimalarial activity against multi-drug resistant Plasmodium falciparum K1 assessed as reduction in parasite growth incubated for 48 hrs by SYBR green assay. The data set is classed as functional, organism-based. As to conditions: K1, 48 h.
In data set [15] the test system is HepG2. The data set is described as follows: Cytotoxicity against human HepG2 cells assessed as reduction in cell viability incubated for 24 hrs by MTT assay. The data set is classed as functional.
For data set [16], the system named is Plasmodium berghei. As to the kind of experiment: Antimalarial activity against Plasmodium berghei ANKA. It counts as functional, organism-based.
Data set [17] concerns Plasmodium falciparum. The data set is described as follows: Antimalarial activity against chloroquine-sensitive Plasmodium falciparum 3D7 by SYBR green I assay. The data set is classed as functional, organism-based.
Data set [18] deals with Plasmodium falciparum. As to the kind of experiment: Antimalarial activity against chloroquine-resistant Plasmodium falciparum Dd2 assessed as reduction in parasitic growth incubated for 72 hrs by Giemsa-staining based microscopic analysis. It counts as functional, organism-based. The note with it: Dd2, 72 h.
Data set [19] deals with Plasmodium falciparum. As to the kind of experiment: Antimalarial activity against Plasmodium falciparum assessed as parasitic growth inhibition. The data set is classed as functional, organism-based.
Data set [20] concerns Plasmodium falciparum. The data set is described as follows: Antiplasmodial activity against Plasmodium falciparum Dd2 assessed as reduction in parasitic growth incubated for 48 hrs by SYBR Green staining based fluorescence analysis. The note with it: Dd2, 48 h. It counts as functional, organism-based.
Data set [21] has as its system Plasmodium falciparum. As to the kind of experiment: Antiplasmodial activity against Plasmodium falciparum Dd2 infected in human Erythrocyte measured after 72 hrs by SYBR green fluorescence dye based microplate reader analysis. The data set is classed as functional, organism-based.
The subject of data set [22] is Plasmodium falciparum. As to the kind of experiment: Antiplasmodial activity against chloroquine-sensitive Plasmodium falciparum 3D7 infected in human erythrocyte incubated for 72 hrs by SYBR green I staining based fluorescence assay. It counts as functional, organism-based. As to conditions: 3D7, Erythrocyte.

On to `OB1OCc2ccc(OCc3cn(CCN4CCN(c5ccnc6cc(Cl)ccc56)CC4)nn3)cc21`, for which, in data set [1], the IC50 (in general, the concentration at which inhibition is half-maximal) at 24 h is 82.4 µM. The IC50 turned out to be 4.86 µM in [2] and 5.31 µM in data set [3].

For the compound `COc1ccc(/C(C)=N/C(=S)NNc2ccnc3cc(Cl)ccc23)cc1OC`, in [4], the IC50 is 38.7 µM.

Turning to `CC1(C)c2ccccc2-c2cc(Cl)c(NC(=O)CNCCCNc3ccnc4cc(Cl)ccc34)cc21`, the IC50 in data set [5] was found to be 0.27 µM; in data set [6] it was 6.33 µM.

For `CCOC(=O)c1nn(CCNc2ccnc3cc(Cl)ccc23)c2c1C(c1ccc(O)cc1)C(C#N)=C(N)O2` (stereo unspecified), the EC50 (commonly the midpoint of the concentration-response curve) in [7] was 7.12 µM; in data set [8], 0.026 µM. In addition, in data set [9], the CC50 (as a rule, the concentration that lowers cell viability or growth by half) at 48 h turned out to be 9.24 µM.

In the case of `C/C(=N\C(=S)NNc1ccnc2cc(Cl)ccc12)c1ccc2ccccc2c1`, the IC50 in data set [4] amounted to 79.9 µM.

As to `C/C(=N/c1ccccc1Nc1ccnc2cc(Cl)ccc12)c1ccc2ccccc2c1`, the IC50 in data set [4] stood at 77.6 µM.

Consider `C[C@H]1[C@H](OC(=O)CCC(=O)O)O[C@@H]2O[C@@]3(C)CC[C@H]4[C@H](C)CC[C@@H]1[C@@]24OO3` [ARTESUNATE], for which the 50% inhibitory concentration (IC50) in data set [10] was less than 5.2 µM.

In the case of `OB1OCc2ccc(OCc3cn(CCNc4ccnc5cc(Cl)ccc45)nn3)cc21`, the IC50 at 24 h in [1] is greater than 100 µM. In addition, the figures for the IC50 in data set [2] and in data set [3] were 3.78 µM and 4.15 µM, respectively.

Regarding `Fc1ccc2scc(-c3ccc(CNCCCNc4ccnc5ccccc45)cc3)c2c1`, the IC50 in [11] amounted to 0.0733 µM; in data set [12], 0.0188 µM.

In the case of `NCCNc1ccnc2cc(Cl)ccc12`, the IC50 in [13] is 0.273 µM; in data set [14] it was 0.218 µM. The MLD50 in data set [15] is 179 µM.

The compound `COc1ccc2c(c1)C[C@H](Nc1ccnc3cc(Cl)ccc13)C2` displayed an IC50 in [16] of 0.59 µM.

For the compound `CCCCCCCCCCCC(=O)NCCCC(C)Nc1ccnc2cc(Cl)ccc12` (stereo unspecified), the IC50 in data set [17] came to 0.045 µM; in data set [18] it was 160 µM.

For `Clc1ccc2c(NNc3ccncc3)ccnc2c1`, the IC50 in data set [19] turned out to be 3.75 µM.

As to `O=C(O)CNc1ccnc2cc(Cl)ccc12`, the concentration for half-maximal inhibition (IC50) in [13] and in [14] was greater than 10 µM in each case. In addition, the MLD50 in data set [15] is greater than 1000 µM.

`Clc1ccc2c(NNc3cccnc3)ccnc2c1`: in data set [19], the IC50 was determined as 2.21 µM.

In turn, `COc1ccc(OC)c2c1CC(Nc1ccnc3cc(Cl)ccc13)C2` came in with an IC50 in data set [16] of 0.48 µM.

`COc1ccc2nc(/C=C/c3ccncc3)cc(N3CCN(C)CC3)c2c1`: the IC50 in data set [20] stood at 0.61 µM.

Take `COc1ccc2nc(/C=C/c3ccncc3)cc(Nc3ccccc3)c2c1`: the IC50 in [20] came out at 0.965 µM.

For the compound `Clc1ccc2c(Nc3ccncc3)ccnc2c1`, the IC50 in data set [19] was 4.23 µM.

Take `OB1OCc2ccc(OCc3cn(CCCNc4ccnc5cc(Cl)ccc45)nn3)cc21`: the IC50 at 24 h in [1] is greater than 100 µM. Moreover, the IC50 was determined as 3.91 µM in [2] and 4.13 µM in data set [3].

Take `N#Cc1ccc(-c2ccc(-c3ccc(CNCCCCCCCCNc4ccnc5cc(Cl)ccc45)cc3)s2)cc1`: the IC50 in [11] worked out at 0.174 µM; in data set [12], 0.0973 µM.

On to `C[C@H]1[C@H](OC(=O)CCC(=O)NCCNc2ccnc3cc(Cl)ccc23)O[C@@H]2O[C@@]3(C)CC[C@H]4[C@H](C)CC[C@@H]1[C@@]24OO3`, for which the EC50 in data set [21] worked out at 0.001 µM; in data set [22] it was 0.0027 µM.

Turning to `CCOC(=O)c1nn(CCNc2ccnc3cc(Cl)ccc23)c2c1C(c1ccc(CC)cc1)C(C#N)=C(N)O2` (stereo unspecified), the EC50 in data set [7] was 0.02 µM; in data set [8] it was 0.013 µM. In addition, the CC50 at 48 h in data set [9] stood at 17.6 µM.

Take `CCCCC1(CCCC)c2ccccc2-c2cc(Cl)c(NC(=O)CNCCCNc3ccnc4cc(Cl)ccc34)cc21`: the IC50 in data set [5] amounted to 0.139 µM; in [6] it was 15.9 µM.

As for `COc1ccc(/C(C)=N\c2ccccc2Nc2ccnc3cc(Cl)ccc23)cc1OC`, the IC50 in [4] was 49.7 µM.

For `NC(S)=NNc1ccnc2cc(Cl)ccc12`, in data set [4], the IC50 was found to be 25.4 µM.

In turn, `COc1cc2c(cc1OC)CC(Nc1ccnc3cc(Cl)ccc13)C2` had an IC50 in [16] of 0.39 µM.

Regarding `C#CCNc1ccnc2cc(Cl)ccc12`, the figures for the IC50 in [13] and in data set [14] were 0.377 µM and 0.405 µM, respectively. In addition, the MLD50 in data set [15] was determined as 407 µM.

`Nc1ccccc1Nc1ccnc2cc(Cl)ccc12`: in [4], the IC50 was determined as 35.3 µM.
